Results taken from PMC5622733, “Polymethoxyflavones: Novel β-Secretase (BACE1) Inhibitors from Citrus Peels” (Nutrients, 2017).

Assays:
Chymotrypsin = biological target: T1, Chymotrypsin (Bos taurus, UniProt P00766); test: Chymotrypsin assay; assay type: biochemical; conditions: read-out: Inhibitory activity (%) against Chymotrypsin
T1 construct: purchased Sigma-Aldrich (St. Louis, MO, USA)
Experimental: (§1) BACE1 inhibition was determined by enzymatic assay using the fluorescent resonance energy transfer (FRET)-based BACE1 kit from Invitrogen (Pan Vera, Madison, WI, USA). α-Secretase (tumor necrosis factor-α converting enzyme, TACE) and substrate were obtained from R&D Systems (Minneapolis, MN, USA). Trypsin, chymotrypsin, elastase, and their substrates were obtained from Sigma-Aldrich (St. Louis, MO, USA). The measurement of fluorescence and optical density was performed with a BioTEK ELISA microplate fluorescence reader FLx 800 and BioTEK ELx 808 (Winooski, VT, USA), respectively.
(§2) BACE1, TACE, chymotrypsin, trypsin and elastase assays were performed according to previous methods. Fluorometric BACE1 and TACE assay were measured using a Rh-[…]-Quencher and Mca-PLAQAV-Dpa-RSSSR-NH2 as substrates. Trypsin, chymotrypsin, and elastase were assayed according to the manual described in the reference using N-benzoyl-L-Arg-pNA, N-benzoyl-L-Tyr-pNA, and N-succinyl-Ala-Ala-Ala-pNA as substrates, respectively.

Trypsin = Trypsin assay; assay type: biochemical
Experimental: as §1, §2

6-OHDA-lesioned rats = conditions: 20 mg/kg/day for 4 days before 6-OHDA injection; cited from earlier work
[1] = test system: primary rat microglia and BV-2 microglial cell; conditions: LPS-induced; cited from earlier work
[2] = chronic oral administration; cited from earlier work
Elastase = biological target: T2, Elastase (Sus scrofa, UniProt P00772); test: Elastase assay; assay type: biochemical; conditions: read-out: Inhibitory activity (%) against Elastase
T2 construct: purchased Sigma-Aldrich (St. Louis, MO, USA)
Experimental: as §1, §2

P-glycoprotein (P-gp) = test system: P-glycoprotein (P-gp); set-up: method as in PMID 11098080, PMID 17348674; conditions: adriamycin-resistant human myelogenous leukemia cells and Caco-2 cells, talinolol as probe; cited from earlier work
[3] = rats, up to 1000 to 3000 mg/kg bw; cited from earlier work
[4] = biological target: T3, α-secretase (tumor necrosis factor-α converting enzyme, TACE) (Homo sapiens, UniProt P78536); test: TACE (α-secretase) fluorometric assay; assay type: biochemical; conditions: read-out: Inhibitory activity (%) against TACE
T3 construct: purchased R&D Systems (Minneapolis, MN, USA)
Experimental: as §1, §2

BACE1 [5] = biological target: T4, BACE1 (Homo sapiens, UniProt P56817); test: FRET-based BACE1 inhibition assay; assay type: biochemical; conditions: FRET substrate Rh-[…]-Quencher
T4 construct: purchased Invitrogen (Pan Vera, Madison, WI, USA)
Experimental: as §1, §2

BACE1 [6] = biological target: T4, BACE1; test: BACE1 inhibition kinetics (Dixon and Lineweaver–Burk plots); assay type: biochemical; conditions: for Type of inhibition: Dixon and Lineweaver–Burk plots; for Ki: substrate 250-750 nM, read-out: Ki calculated from the Dixon plots
Experimental: The kinetic mechanisms of the different samples towards BACE1 were determined by the graphical views of Dixon and Lineweaver–Burk plots. The inhibitory constants (Ki) value was defined by interpretation of the Dixon plot, where the value of the x-axis implies -Ki. […] The kinetic parameters were then calculated using Enzyme Kinetic^TM module of SigmaPlot^TM version 12.3 (Systat Software, Inc., San Jose, CA, USA).

[7] = test system: ERK and CREB signaling pathways; conditions: cited from earlier work
[8] = cited from earlier work
[9] = test system: inducible nitric oxide synthase (iNOS), cyclooxygenase-2 (COX-2); conditions: cited from earlier work
[10] = test system: cyclic AMP response element-mediated transcription; set-up: method as in PMID 23588349; conditions: rat hippocampal neurons; cited from earlier work
APP-SL 7-5 Tg mice = conditions: daily from 4 to 9 months of age; cited from earlier work
[11] = test system: olfactory bulbectomy-induced memory impairment; conditions: administration for 11 days; cited from earlier work
[12] = cited from earlier work; remark: listed apart in the source
3XTg-AD mice = conditions: cited from earlier work

T3 sequence (P78536 215-824): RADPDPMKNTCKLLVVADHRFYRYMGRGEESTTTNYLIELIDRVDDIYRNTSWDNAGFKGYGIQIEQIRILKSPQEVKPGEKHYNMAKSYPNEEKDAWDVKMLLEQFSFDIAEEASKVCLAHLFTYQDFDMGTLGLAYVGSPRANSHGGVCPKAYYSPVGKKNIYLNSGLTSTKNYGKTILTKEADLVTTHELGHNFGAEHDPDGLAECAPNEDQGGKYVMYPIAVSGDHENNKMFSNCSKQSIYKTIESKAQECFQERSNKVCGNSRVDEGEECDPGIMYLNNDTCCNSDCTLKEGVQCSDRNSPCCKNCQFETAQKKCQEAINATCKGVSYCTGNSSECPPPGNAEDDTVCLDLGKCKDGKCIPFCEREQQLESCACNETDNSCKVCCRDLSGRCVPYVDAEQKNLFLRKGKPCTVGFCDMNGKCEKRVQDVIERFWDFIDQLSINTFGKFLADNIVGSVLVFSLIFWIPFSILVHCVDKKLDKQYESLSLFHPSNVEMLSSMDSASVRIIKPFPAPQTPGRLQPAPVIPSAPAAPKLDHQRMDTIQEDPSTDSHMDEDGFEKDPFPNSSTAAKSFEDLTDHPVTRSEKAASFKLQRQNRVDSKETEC
T4 sequence (P56817 46-501): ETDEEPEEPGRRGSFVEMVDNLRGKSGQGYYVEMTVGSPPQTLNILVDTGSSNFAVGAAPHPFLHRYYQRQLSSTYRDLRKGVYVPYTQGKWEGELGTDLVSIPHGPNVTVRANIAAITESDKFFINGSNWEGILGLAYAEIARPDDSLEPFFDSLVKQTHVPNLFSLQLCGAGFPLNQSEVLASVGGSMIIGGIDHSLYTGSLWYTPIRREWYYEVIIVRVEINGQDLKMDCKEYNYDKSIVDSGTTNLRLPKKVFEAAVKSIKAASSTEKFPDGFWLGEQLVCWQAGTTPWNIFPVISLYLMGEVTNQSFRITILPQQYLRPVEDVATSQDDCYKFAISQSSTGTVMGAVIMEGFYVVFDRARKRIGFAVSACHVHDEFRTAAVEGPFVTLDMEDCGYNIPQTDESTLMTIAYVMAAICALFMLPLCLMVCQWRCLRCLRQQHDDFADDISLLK
T2 sequence (P00772 27-266): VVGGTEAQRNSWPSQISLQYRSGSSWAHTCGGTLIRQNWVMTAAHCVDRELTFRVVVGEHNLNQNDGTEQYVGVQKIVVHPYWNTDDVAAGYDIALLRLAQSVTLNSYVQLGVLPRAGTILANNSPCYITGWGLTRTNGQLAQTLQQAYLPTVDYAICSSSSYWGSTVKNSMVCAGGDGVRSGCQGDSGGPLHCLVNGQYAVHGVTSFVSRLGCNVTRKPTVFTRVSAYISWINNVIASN

Structure (SMILES)	inhibition at 50 µM (Chymotrypsin) [%]	inhibition at 100 µM (Chymotrypsin) [%]	Inhibitory activity (%) against Trypsin (Trypsin; 50 μM) [%]	Inhibitory activity (%) against Trypsin (Trypsin; 100 μM) [%]	inhibition at 50 µM (Elastase) [%]	inhibition at 100 µM (Elastase) [%]	P-gp inhibition (P-glycoprotein (P-gp))	inhibition at 50 µM [4] [%]	inhibition at 100 µM [4] [%]	IC50 (BACE1 [5]) [µM]	Type of inhibition (BACE1 [6])	Ki (BACE1 [6]) [µM]	Suppression of gene expression of iNOS and COX-2 relative to parent compound [9]	further results
COc1ccc(-c2cc(=O)c3c(OC)c(OC)c(OC)c(OC)c3o2)cc1 [Tangeretin, 5,6,7,8,4′-pentamethoxyflavo-ne]	5.68 ± 0.86	6.16 ± 0.38	8.10 ± 0.99	11.80 ± 1.04	8.64 ± 0.65	10.6 ± 1.09	inhibitory potential with P-gp	8 ± 1	11.3 ± 1.66	49	noncompetitive	37		Loss of TH+ cells and striatal dopamine content (6-OHDA-lesioned rats): markedly reduced the loss; Microglial cell activation [1]: suppressed; Detection in the hippocampus [2]: detected in the hippocampus; Death and clinical chemistry in oral acute and sub-acute study [3]: no evidence of death nor significant change of clinical chemistry
COc1cc(-c2cc(=O)c3c(OC)c(OC)c(OC)c(OC)c3o2)ccc1O [4′-DMN]													more efficiently suppressed	Phosphorylation of ERK and CREB [7]: stimulate phosphorylation; Ability to cross the blood–brain barrier (BBB) [8]: able to cross the blood–brain barrier (BBB)
COc1ccc(-c2cc(=O)c3c(OC)c(OC)c(OC)cc3o2)cc1OC [Sinensetin, 5,6,7,3′,4′-pentamethoxyflavone]	9.08 ± 0.48	8.78 ± 0.8	5.16 ± 0.69	4.70 ± 0.58	7.4 ± 2.09	11.4 ± 1.38		7.88 ± 1.12	7.19 ± 1.35	63	noncompetitive	38		CRE-mediated transcription [10]: activate
COc1ccc(-c2cc(=O)c3c(OC)c(OC)c(OC)c(OC)c3o2)cc1O [3′-DMN]														iNOS inhibition relative to nobiletin [9]: more efficiently than nobiletin
COc1c(OC)c(OC)c2c(=O)cc(-c3ccc(O)c(O)c3)oc2c1OC [3′,4′-di-DMN]													more efficiently suppressed	
COc1ccc(-c2cc(=O)c3c(OC)c(OC)c(OC)c(OC)c3o2)cc1OC [Nobiletin, 5,6,7,8,3′,4′-hexamethoxyflavone]	1.39 ± 0.17	1.77 ± 0.06	1.00 ± 0.07	0.92 ± 0.06	5.51 ± 1.17	4.49 ± 1	inhibitory potential with P-gp	5.49 ± 0.34	11.6 ± 3.07	59	noncompetitive	34		Aβ1-42 and Aβ1-40 in the brain (APP-SL 7-5 Tg mice): reduced quantity; Memory impairment, context-dependent fear conditioning test (APP-SL 7-5 Tg mice): significantly reversed memory impairment; Memory impairment [11]: significantly recovered; Content in the brain ([12]; mice, oral 50 mg/kg): 3.6 mg/kg; Content in the brain (molar) ([12]; mice, oral 50 mg/kg): approximately 8.9 µM; Accumulation in the brain versus liver ([12]; oral administration): much higher than that in the liver; Soluble Aβ1-40 and ROS levels in brain and hippocampus (3XTg-AD mice): reduced the levels
